Experimental data as given in patent publication US12059412B2, “Pharmaceutical composition containing (R)-N-[1-(3,5-difluoro-4-methanesulfonylamino-phenyl)-ethyl]-3-(2-propyl-6-trifluoromethylpyridin-3-yl)-acrylamide and method for inhibiting crystal formation thereof” (Amorepacific Corporation, priority 2018, dated 2024).

Assay: Solubility of compound of Formula 1 in various solvents (excess compound, shaking, HPLC)
Format: physicochemical
Conditions: Ethanol; 25° C., 24 hours
Procedure: Since solvent that gives high solubility can dissolve the compound of Formula 1 in a small amount compared to a solvent that gives low solubility, in particular, when formulated into an external preparation of skin, a relatively higher amount of water may be contained, so that the feeling of use can be further enhanced.
An excessive amount of the compound of Formula 1 was added to 1 mL of each solvent shown in Table 1 below, and stirred at 25° C. at 200 rpm for 24 hours while shaking
(Shaking incubator, SI 600R, JEIO TECH, Korea). Thereafter, centrifugation was performed at 10,000 rpm for 10 minutes, and the supernatant was filtered using a membrane filter (0.2 μm), diluted appropriately with methanol, and analyzed by HPLC.

CCCc1nc(C(F)(F)F)ccc1/C=C/C(=O)N[C@H](C)c1cc(F)c(NS(C)(=O)=O)c(F)c1 [compound of Formula 1, (R)-N-[1-(3,5-difluoro-4-methanesulfonylamino-phenyl)-ethyl]-3-(2-propyl-6-trifluoromethyl-pyridin-3-yl)-acrylamide]
Solubility: 75.32 mg/mL
